According to patent publication US20070082066A1, “Use of zeaxanthin to reduce light hyper-sensitivity, photophobia, and medical conditions relating to light hyper-sensitivity” (priority 2003, published 2007):

Columns and labels:
Format in all cases: in vivo, human
light hyper-sensitivity = assay: Customer and user reports on light hyper-sensitivity after taking zeaxanthin
From the text: When asked about it by the Applicants herein, they offered answers that were usually along the lines of, “I hadn't noticed that. But yeah, you're right. I haven't been wearing my sunglasses as much as I used to. I just don't feel like I need them as much, or as often.”
At roughly the same time, the customer service specialist at ZeaVision also began to receive sporadic comments from people who had purchased zeaxanthin capsules to treat or prevent macular degeneration.
These discoveries led the customer support staff at ZeaVision to begin routinely asking customers about light hyper-sensitivity, if they called in and wanted to discuss the visual improvements they were enjoying after they began taking zeaxanthin.

[1] = system: migraine or other severe headaches; assay: Customer reports on frequency of migraine or other severe headaches; details: a number of customers with migraine or recurrent headaches; zeaxanthin at 10 mg or more per day
sunburns = assay: Summertime exposure to direct sunlight, sunburn protection; details: oral, about 30 to about 80 mg/day, summer of 2002, direct sunlight
From the text: Instead, this discovery arose out of observations that were made while zeaxanthin was being tried and evaluated by a number of people, to determine whether it could help protect the skin against sunburns. Because of various factors and events described in a separate patent application (Ser. No. 10/356,134, Gierhart et al; the contents of that application are incorporated herein by reference, as though fully set forth herein), the founder of ZeaVision (who is also one of the Inventors herein) became convinced that relatively high dosages of zeaxanthin, in the range of about 30 mg or greater per day, could increase the skin's ability to withstand direct sunlight without suffering a sunburn. Accordingly, several coworkers began taking zeaxanthin at dosages in a range of about 30 to about 80 mg/day, during the summer of 2002, to provide additional evaluation of the earliest results that had been seen.
(§1) Therefore, a patent application entitled “Protection Against Sunburn and Skin Problems with Orally-Ingested High-Dosage Zeaxanthin”, was drafted and filed in the autumn of 2002, as a provisional application, based on anecdotal evidence from several people. […] After those test data became available, the provisional patent application on sunburn prevention was expanded into a utility application.

skin = assay: Indoor tests with medical-grade ultraviolet lamp, before-and-after minimal erythemal dosages; details: high-dosage zeaxanthin, winter season
From the text: as §1

[2] = Safety and tolerability in users taking zeaxanthin for macular degeneration; details: 20 mg/day, thousands of users over the past few years
From the text: If no results are noticed at that level within about 2 to 4 weeks, the person can try a somewhat higher dosage during the next 2-4 weeks.

In the case of `CC1=C(/C=C/C(C)=C/C=C/C(C)=C/C=C/C=C(C)/C=C/C=C(C)/C=C/C2=C(C)C[C@@H](O)CC2(C)C)C(C)(C)C[C@H](O)C1` [zeaxanthin], the “light hyper-sensitivity, volunteered consumer comments” value (light hyper-sensitivity; consumers who purchased zeaxanthin capsules to treat or prevent macular degeneration, after vs before taking) is reported as “suffering less from light hyper-sensitivity”, the “use of sunglasses when driving or outdoors” value (light hyper-sensitivity; high-dosage zeaxanthin, several people working with ZeaVision, family members and friends, spring of 2003) is reported as “had stopped using their sunglasses so much” and the “unusual and unpleasant levels of light sensitivity, routine customer questioning” value (light hyper-sensitivity; nearly all of the roughly 30% of customers who reported light sensitivity, after they began taking zeaxanthin capsules) is reported as “less severe and less troubling”. The “light sensitivity evaluated separately from vision clarity” value (light hyper-sensitivity; nearly all patients who had reported increased light sensitivity, zeaxanthin at 10 mg or more per day) was “improved, significantly”, the “frequency of migraine or other severe headaches” value [1] was “didn't seem to be having as many migraine or other severe headaches” and the risk of sunburns (sunburns) was “can indeed reduce the risk of sunburns”. The “skin-protective effects (minimal erythemal dosages before and after)” value (skin) was “strongly confirmed the skin-protective effects” and the safety and tolerability [2] was “safe and well-tolerated”.
